Laboratory results taken from patent publication US20260355189A1, “SMALL MOLECULE INHIBITORS OF NEUTROPHIL EXOCYTOSIS AND INFLAMMATION” (THE SCRIPPS RESEARCH INSTITUTE, priority 2022, published 2026).

What was measured:
[1] = tested on: human neutrophils (secretory vesicle marker CD11b); test: Flow cytometry of secretory vesicle mobilization (CD11b) in human neutrophils; type: cell-based; settings: 10 μM, 1 hour; GM-CSF + fMLP; relative to DMSO; N=15 donors; FIG. 7
Text: (§1) Human neutrophils were isolated from normal donor's blood by Ficoll density centrifugation, as described previously (23). Murine bone marrow-derived neutrophils were isolated using a Percoll gradient fractionation system as described (24). A three-layer Percoll gradient was used (52%, 64%, and 72%), and neutrophils were isolated from the 64-72% interface, washed, and used in the assays.
(§2) Method: The up-regulation of granule membrane-associated neutrophil markers at the plasma membrane was analyzed by flow cytometry. In these studies, flow cytometry analysis was performed by resuspension of 1×10^6 human neutrophils in phenol red-free RPMI 1640 medium, treated with a 10 μM solution of Inhibitors C1, C2, C4, C5, and C6 and Nexinhib 20 (C20) or DMSO control for 1 hour, and stimulated with physiological agonists GM-CSF (10 ng/ml) for 30 min followed by the addition of fMLP (1 μM) to induce degranulation or left untreated at 37 °C (non-stimulated, NS). The reactions were stopped by transferring the samples to ice and immediately spinning down the cells to initiate blocking and staining. To analyze the plasma membrane expression of plasma membrane markers, the cells were blocked in ice-cold PBS containing 1% BSA and stained with phycoerythrin (PE)-, FITC-, or Alexa647-conjugated anti-human CD63, CD66b, MMP9, and CD11b antibodies that detect extracellular epitopes of these markers. The cells were then washed and fixed in 1% paraformaldehyde in PBS. Samples were analyzed using a NovoCyte flow cytometer, and the data were processed using FlowJo software.

mouse neutrophils = test: Isoluminol-dependent chemiluminescence assay of MPO secretion in purified mouse neutrophils; type: cell-based
Text: FIGS. 3A-C illustrate the effect of Inhibitors C1, C2, C4, C5, and C6 and comparator Nexinhib 20 (shown as “C20”) on MPO secretion of mouse neutrophils. FIG. 3A is a schematic representation of a cell-based secondary screening assay used to analyze the potency the potency of Rab27a-JFC1 inhibitors for their ability to decrease exocytosis of intact human neutrophil. This cell-based assay measures the secretion of myeloperoxidase (MPO) by human neutrophils using cell-impermeant isoluminol-dependent chemiluminescence in the absence of exogenous peroxidases.
as §1
Extracellular MPO-dependent reactive oxygen species (ROS) production was measured using the chemiluminescence reactions mediated by isoluminol (25). To this end, 3×10^5 neutrophils were resuspended in serum-free RPMI 1640 medium in the presence of cell-impermeant isoluminol, and reactions were carried out in the absence of exogenous peroxidase. Neutrophils were incubated in the presence of compounds or DMSO (0.5%) pin-tooled into 384-well plates in a […]. Control experiments were run in parallel in the presence of [COMPOUND LEFT OUT] (0.5 mM) to inhibit endogenous myeloperoxidase. After addition of stimuli (phorbol 12-myristate 13-acetate, “PMA”) or vehicle using liquid handling devices (BioRaptor FRD, Beckman Coulter), MPO-dependent chemiluminescence was continuously monitored for 30 min at 37 °C using a 2104 EnVision multilabel plate reader. For secretion assays, 0.5×10^6 neutrophils were incubated in RPMI 1640 medium in polystyrene 96-well plates in the presence of Inhibitors or dimethyl sulfoxide (DMSO) control for 1 hour and stimulated for the indicated times at 37 °C with PMA (0.1 μg/ml), GM-CSF (10 ng/ml), and fMLP (1 μM) or DMSO control. The cells were spun down, and supernatants were transferred to clean plates using plate filters to avoid contamination from cellular secretory proteins. MPO was measured by ELISA (R&D Systems).
Results: FIG. 3B is a graph showing the effect of Inhibitors C1, C2, C4, C5, and C6 on secreted MPO-dependent reaction using the isoluminol-dependent chemiluminescence assay in highly purified mouse neutrophils. On the graph of FIG. 3B, the pre-fix “NS” means “no stimuli” where the cells were treated with 10 μM C1, C2, C4, C5, C6, and C20 alone without any exocytosis stimuli. The pre-fix “PMA” means the cells were stimulated with PMA to secrete MPO and were treated with 10 μM of the designated Inhibitor. […] Mean % inhibition: C1, 76.74; C2, 59.85; C4, 70.9; C6, 62.4; C20, 99.22.

[2] = tested on: human neutrophils (azurophilic granule marker CD63); test: Flow cytometry of azurophilic granule mobilization (CD63) in human neutrophils; type: cell-based; settings: 1 hour, GM-CSF + fMLP; for Inhibition of CD63 up-regulation: 10 μM, relative to DMSO, FIG. 4; for inhibition at 10 µM: Homo sapiens, Neutrophil, N=15 donors, FIG. 4, read-out: Mean % inhibition of CD63 up-regulation
Text: as §1, §2

[3] = tested on: human neutrophils (specific granule marker CD66b); test: Flow cytometry of specific granule exocytosis (CD66b) in human neutrophils; type: cell-based; settings: 1 hour, GM-CSF + fMLP; for Inhibition of CD66b up-regulation: relative to DMSO; for inhibition at 10 µM: Homo sapiens, Neutrophil, FIG. 5, read-out: % inhibition of CD66b up-regulation
Text: as §1, §2

[4] = tested on: human neutrophils (Gelatinase granule cargo MMP9); test: Flow cytometry of gelatinase granule exocytosis (MMP9) in human neutrophils; type: cell-based; settings: 1 hour, GM-CSF + fMLP; for Inhibition in MMP9 experiment (words; printed as CD66b up-regulation): 10 μM, relative to DMSO, FIG. 6; for inhibition at 10 µM: Homo sapiens, Neutrophil, N=12 donors, FIG. 6, read-out: % Inhibition of MMP9 up-regulation
Text: as §1, §2

[5] = tested on: neutrophils that carry the NLRP3 A350V mutation; test: Secretion by bone-marrow-derived neutrophils from Nlrp3 A350V (CAPS) mice; type: cell-based, mouse; settings: 10 μM, 1 hour, LPS and fMLF; for Mobilization of azurophilic granules (MPO) / Mobilization of gelatinase granules (MMP9) / Mobilization of CD63: FIG. 8; for Neutrophil secretion (hyperactivation of secretion): Nlrp3 A350V and wild type, FIG. 8A-C; for Mobilization of CD63: murine neutrophils
Text: FIG. 8A-C. […] A, gelatinase (MMP9) granules; B, azurophilic granules (MPO, myeloperoxidase); C, CD63 (an endolysosomal marker). […] Subsequently, neutrophils were either stimulated with lipopolisacharide (LPS) and the chemotatctic peptide fMLF or left untreated. C20 (Nexinhib20 is used as control). Mean±SEM, n=3. In this and subsequent figures, p<0.05; **, p<0.01; ***, p<0.001; ****, p<0.0001, ANOVA.
These compounds are now tested using neutrophils from a mouse model of Cryopyrin-Associated Periodic Syndrome (CAPS), a systemic inflammatory disease in humans, caused by gain-of-function mutations of the NOD-like receptor family member, cryopirin, also known as NLRP3 (J Cin Immunol 39, 277-286, doi:10.1007/s10875-019-00638-z (2019)). Heterozygous NLRP3 mutations lead to hyper-responsive NLRP3 inflammasome function characterized by increased caspase-1 (Casp1) activation and […], and is observed in patients and in animal models with NLRP3-gain-of-function mutations. […] Subsequently, neutrophils were either stimulated with LPS and the chemotatctic peptide fMLF or left untreated.

wild-type neutrophils = test: Secretion by wild-type neutrophils; type: cell-based
[6] = 10 μM inhibitor, PMA stimulated, FIG. 3B
[7] = Mus musculus, Neutrophil, 10 μM inhibitor, PMA stimulated, FIG. 3B

## CNC(=O)/C(=C/c1cccc([N+](=O)[O-])c1)n1cncn1 [153 (C5)]
[1]
  Release of CD11b+ vesicles / CD11b upregulation: unaffected

## CN(C)c1cccc(/C=C(/C(=O)C(C)(C)C)n2cncn2)c1 [150 (C1)]
Mouse neutrophils; [6]
  Inhibition of exocytosis vs DMSO control: significant inhibition of exocytosis
Mouse neutrophils; [7]
  inhibition at 10 µM: 76.7%
Mouse neutrophils; Mus musculus, Neutrophil, dose-response analysis, FIG. 3C
  IC50: 860 nM
[2]
  Inhibition of CD63 up-regulation: marked and significant inhibition of CD63 up-regulation
  inhibition at 10 µM: 93.1%
[3]; 10 μM, FIG. 5
  Inhibition of CD66b up-regulation: marked and significant inhibition of CD66b up-regulation
[3]; N=12 donors
  inhibition at 10 µM: 57.6%
[4]
  Inhibition in MMP9 experiment (words; printed as CD66b up-regulation): marked inhibition of CD66b up-regulation
  inhibition at 10 µM: 55.3%
[1]
  Release of CD11b+ vesicles / CD11b upregulation: unaffected
[5]
  Mobilization of azurophilic granules (MPO): inhibit the mobilization
  Mobilization of gelatinase granules (MMP9): inhibit the mobilization of gelatinase granules (MMP9)
  Mobilization of CD63: significantly inhibited the mobilization of CD63
[5]; listed as C1
  Neutrophil secretion (hyperactivation of secretion): inhibit the hyperactivation of secretion
[5]; listed as NEIa-C1
  Neutrophil secretion (hyperactivation of secretion): significantly inhibit secretion
wild-type neutrophils
  Inhibitory effect on wild-type neutrophils: selective inhibitory effect on wild-type neutrophils

## O=C(Nc1ccccc1)/C(=C/c1cccc([N+](=O)[O-])c1)n1cncn1 [152 (C4)]
Mouse neutrophils; [6]
  Inhibition of exocytosis vs DMSO control: significant inhibition of exocytosis
Mouse neutrophils; [7]
  inhibition at 10 µM: 70.9%
[3]; 10 μM, FIG. 5
  Inhibition of CD66b up-regulation: marked and significant inhibition of CD66b up-regulation
[3]; N=12 donors
  inhibition at 10 µM: 48.1%
[4]
  inhibition at 10 µM: 16.4%
[1]
  Release of CD11b+ vesicles / CD11b upregulation: unaffected
[5]
  Mobilization of azurophilic granules (MPO): inhibit the mobilization
  Mobilization of gelatinase granules (MMP9): inhibit the mobilization of gelatinase granules (MMP9)
  Neutrophil secretion (hyperactivation of secretion): inhibit the hyperactivation of secretion
  Mobilization of CD63: significantly inhibited the mobilization of CD63
wild-type neutrophils
  Inhibitory effect on wild-type neutrophils: selective inhibitory effect on wild-type neutrophils

## CC(C)(C)C(=O)/C(=C/c1cccc([N+](=O)[O-])c1)n1cncn1 [Nexinhib20, reference compound]
Mouse neutrophils; [6]
  Mean % inhibition of MPO-dependent chemiluminescence (MPO secretion): 99.22%
[2]
  Inhibition of CD63 up-regulation: marked and significant inhibition of CD63 up-regulation
[3]; 10 μM, N=12 donors, FIG. 5
  % inhibition of CD66b up-regulation: 100%
[3]; 10 μM, FIG. 5
  Inhibition of CD66b up-regulation: marked and significant inhibition of CD66b up-regulation
[4]
  Inhibition in MMP9 experiment (words; printed as CD66b up-regulation): marked inhibition of CD66b up-regulation
[1]
  Release of CD11b+ vesicles / CD11b upregulation: significantly inhibited CD11b upregulation at the plasma membrane (to levels lower than basal controls)

## CC(C)(C)C(=O)C(=Cc1cccc(O)c1)n1cncn1 [151 (C2)]
Mouse neutrophils; [6]
  Inhibition of exocytosis vs DMSO control: significant inhibition of exocytosis
Mouse neutrophils; [7]
  inhibition at 10 µM: 59.9%
[2]
  Inhibition of CD63 up-regulation: marked and significant inhibition of CD63 up-regulation
  inhibition at 10 µM: 59.5%
[3]; 10 μM, FIG. 5
  Inhibition of CD66b up-regulation: marked and significant inhibition of CD66b up-regulation
[3]; N=12 donors
  inhibition at 10 µM: 35.8%
[4]
  Inhibition in MMP9 experiment (words; printed as CD66b up-regulation): marked inhibition of CD66b up-regulation
  inhibition at 10 µM: 26.5%
[1]
  Release of CD11b+ vesicles / CD11b upregulation: unaffected
wild-type neutrophils
  Inhibitory effect on wild-type neutrophils: selective inhibitory effect on wild-type neutrophils
